Experimental data published in patent publication US10266526B2, “Substituted 1,2,3-triazoles as SMYD inhibitors for treating cancer” (EPIZYME, INC., priority 2014, dated 2019).
Like-named read-outs stand apart in the source and are kept apart here.

Target: SMYD3 (Homo sapiens (Human), UniProt Q9H7B4)
Assay: SMYD3 biochemical assay (SMYD3 enzyme assay on MEKK2 protein substrate, 3H-SAM scintillation proximity assay)
Procedure, shortened: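 Detection used scintillation proximity beads to capture ³H-methylated GST-MEKK2 after quench with 100 uM final cold SAM. The reaction was started by SAM/MEKK2 addition after a 30 min RT compound–enzyme preincubation. Enzyme was tag-free full-length human SMYD3 from E. coli, in buffer of 25 mM Tris-Cl pH 8.0, 1 mM TCEP, 0.005% BSG, 0.005% Tween 20.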

[1] = read-out: SMYD3 Biochem IC50 (μM)*
[2] = Table 1A, average of n = 1 to n = 50, read-out: SMYD3 Biochem IC50

Sequence of SMYD3 (Q9H7B4 whole entry): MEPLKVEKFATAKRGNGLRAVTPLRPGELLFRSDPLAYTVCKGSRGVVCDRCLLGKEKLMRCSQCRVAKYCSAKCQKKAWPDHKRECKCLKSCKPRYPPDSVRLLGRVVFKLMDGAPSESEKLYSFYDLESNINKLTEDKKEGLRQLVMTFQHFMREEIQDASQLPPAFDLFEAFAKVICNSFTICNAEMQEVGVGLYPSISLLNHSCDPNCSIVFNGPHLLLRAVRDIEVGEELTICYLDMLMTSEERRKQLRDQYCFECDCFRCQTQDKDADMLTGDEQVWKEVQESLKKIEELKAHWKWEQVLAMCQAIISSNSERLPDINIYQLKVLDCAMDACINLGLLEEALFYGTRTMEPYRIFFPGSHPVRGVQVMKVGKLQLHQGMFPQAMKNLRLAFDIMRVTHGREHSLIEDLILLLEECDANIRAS

Row | Structure (SMILES) | IC50 (read-out: SMYD3 Biochem IC50) [µM] | IC50 [1] [µM] | also measured
1 | N[C@@H](Cc1ccc(O)cc1)C(=O)N1CCC(NC(=O)c2ccc3c(c2)CC(=O)N3)CC1 [compound 49, N-(1-(L-tyrosyl)piperidin-4-yl)-2-oxoindoline-5-carboxamide] |  | 0.86 | 
2 | COc1ccc2cc(C(=O)N[C@H]3CC[C@H](N)CC3)ccc2c1 [compound 276, N-((1r,4r)-4-aminocyclohexyl)-6-methoxy-2-naphthamide] | > 100 |  | 
3 | CCn1nc(C)cc1C(=O)N[C@H]1CC[C@H](N)CC1 [compound 27, N-((1r,4r)-4-aminocyclohexyl)-1-ethyl-3-methyl-1H-pyrazole-5-carboxamide] |  | 102 | 
4 | O=C(NC1CCN(C(=O)CC2CCNCC2)CC1)c1nnc[nH]1 [compound 547, N-(1-(2-(piperidin-4-yl)acetyl)piperidin-4-yl)-4H-1,2,4-triazole-3-carboxamide] |  |  | IC50 [2]: > 50 µM
5 | C[C@H]1C[C@H](NC(=O)c2ccccc2)CCN1C(=O)C1CCC(N)CC1 (mixture of isomers) [compound 571, (±)-trans-N-(1-(4-aminocyclohexane-1-carbonyl)-2-methylpiperidin-4-yl)benzamide] |  |  | IC50 [2]: > 10 µM
6 | Cc1nn(C(C)C(=O)N[C@H]2CC[C@H](N)CC2)c(C)c1Br (stereo partly shown) [compound 454, N-((1r,4r)-4-aminocyclohexyl)-2-(4-bromo-3,5-dimethyl-1H-pyrazol-1-yl)propanamide] | > 100 |  | 
7 | N[C@H]1CC[C@H](NC(=O)c2cncc(Cl)c2)CC1 [compound 117, N-((1r,4r)-4-aminocyclohexyl)-5-chloronicotinamide] |  | 87 | 
8 | N[C@@H](Cc1ccc(O)cc1)C(=O)N1CCC(CNC(=O)c2ccc3c(c2)CC(=O)N3)CC1 [compound 102, N-((1-(L-tyrosyl)piperidin-4-yl)methyl)-2-oxoindoline-5-carboxamide] |  | 1.86 | 
9 | CC(CC(=O)N[C@H]1CC[C@H](N)CC1)C1CC1 (stereo partly shown) [compound 62, N-((1r,4r)-4-aminocyclohexyl)-3-cyclopropylbutanamide] |  | 155 | 
10 | O=C1Cc2cc(C(=O)NC[C@@H]3CCNC3)ccc2N1 [compound 213, (R)-2-oxo-N-(pyrrolidin-3-ylmethyl)indoline-5-carboxamide] | 17.9 |  | 
11 | N[C@H]1CC[C@H](NC(=O)Cn2ccnc2)CC1 [compound 426, N-((1r,4r)-4-aminocyclohexyl)-2-(1H-imidazol-1-yl)acetamide] | > 100 |  | 
12 | N[C@H]1CC[C@H](NC(=O)Cc2cncnc2)CC1 [compound 365, N-((1r,4r)-4-aminocyclohexyl)-2-(pyrimidin-5-yl)acetamide] | > 100 |  | 
13 | CC(NC(=O)Cc1ccc(F)cc1)C1CCN(C(=O)[C@H](C)N)CC1 (stereo partly drawn) [compound 206, N-(1-(1-(L-alanyl)piperidin-4-yl)ethyl)-2-(4-fluorophenyl)acetamide] | > 100 |  | 
14 | CC(NC(=O)c1nccnc1N)C1CCN(C(=O)[C@H](C)N)CC1 (stereo partly drawn) [compound 188, N-(1-(1-(L-alanyl)piperidin-4-yl)ethyl)-3-aminopyrazine-2-carboxamide] | > 100 |  | 
15 | CC(=O)Nc1ccc(S(=O)(=O)N2CCC(NC(=O)c3ccncc3)CC2)cc1 [compound 4, N-(1-((4-acetamidophenyl)sulfonyl)piperidin-4-yl)isonicotinamide] |  | > 100 | 
16 | CC(NC(=O)c1ccc2cnn(C)c2c1)C1CCN(C(=O)[C@H](C)N)CC1 (stereo partly drawn) [compound 219, N-(1-(1-(L-alanyl)piperidin-4-yl)ethyl)-1-methyl-1H-indazole-6-carboxamide] | > 100 |  | 
17 | Cc1nscc1C(=O)NC(C)C1CCN(C(=O)[C@H](C)N)CC1 (stereo partly drawn) [compound 258, N-(1-(1-(L-alanyl)piperidin-4-yl)ethyl)-3-methylisothiazole-4-carboxamide] | > 100 |  | 
18 | CC(NC(=O)c1cc2ccccc2nc1O)C1CCN(C(=O)[C@H](C)N)CC1 (stereo partly drawn) [compound 474, N-(1-(1-(L-alanyl)piperidin-4-yl)ethyl)-2-hydroxyquinoline-3-carboxamide] | 22.1 |  | 
19 | NCCC(=O)N[C@H]1CC[C@H](NC(=O)c2nc3ccncc3s2)CC1 [compound 532, N-((1r,4r)-4-(3-aminopropanamido)cyclohexyl)thiazolo[5,4-c]pyridine-2-carboxamide] |  |  | IC50 [2]: > 50 µM
20 | NCCCCNC(=O)c1ccc2c(c1)CC(=O)N2 [compound 106, N-(4-aminobutyl)-2-oxoindoline-5-carboxamide] |  | 13.4 | 
21 | CC(C)(CNC(=O)CCN)CNS(=O)(=O)c1ccc2c(c1)CC(=O)N2 [compound 468, 3-amino-N-(2,2-dimethyl-3-((2-oxoindoline)-5-sulfonamido)propyl)propanamide] | 18.3 |  | 
22 | O=C1CNc2cc(C(=O)NC3CCNCC3)ccc2N1 [compound 39, 2-oxo-N-(piperidin-4-yl)-1,2,3,4-tetrahydroquinoxaline-6-carboxamide] |  | 23.9 | 
23 | C[C@@H]1C[C@H](NC(=O)c2ccccc2)CCN1C(=O)C1CCC(N)CC1 (mixture of isomers) [compound 558, (±)-cis-N-(1-(4-aminocyclohexane-1-carbonyl)-2-methylpiperidin-4-yl)benzamide] |  |  | IC50 [2]: > 10 µM

Second part, led by results:

Row | IC50 (read-out: SMYD3 Biochem IC50) [µM] | IC50 [1] [µM] | Structure (SMILES) | also measured
24 | > 100 |  | N[C@H]1CC[C@H](NC(=O)c2cnc3ccccc3n2)CC1 [compound 405, N-((1r,4r)-4-aminocyclohexyl)quinoxaline-2-carboxamide] | 
25 |  | > 100 | COc1ccc2cc(C(C)C(=O)N[C@H]3CC[C@H](NC(=O)CCN)CC3)ccc2c1 (stereo partly shown) [compound 169, 3-amino-N-((1r,4r)-4-(2-(6-methoxynaphthalen-2-yl)propanamido)cyclohexyl)propanamide] | 
26 | > 100 |  | N[C@H]1CC[C@H](NC(=O)c2ccccn2)CC1 [compound 251, N-((1r,4r)-4-aminocyclohexyl)picolinamide] | 
27 | > 100 |  | N[C@H]1CC[C@H](NC(=O)c2cn3ccsc3n2)CC1 [compound 318, N-((1r,4r)-4-aminocyclohexyl)imidazo[2,1-b]thiazole-6-carboxamide] | 
28 |  | 20.7 | N[C@H]1CC[C@H](NC(=O)c2ccc3cnccc3c2)CC1 [compound 166, N-((1r,4r)-4-aminocyclohexyl)isoquinoline-6-carboxamide] | 
29 | > 100 |  | NCCC(=O)N[C@H]1CC[C@H](NC(=O)c2nc3ccccc3s2)CC1 [compound 427, N-((1r,4r)-4-(3-aminopropanamido)cyclohexyl)benzo[d]thiazole-2-carboxamide] | 
30 | > 100 |  | COc1cnc(C(=O)N[C@H]2CC[C@H](NC(=O)CCN)CC2)cn1 [compound 383, N-((1r,4r)-4-(3-aminopropanamido)cyclohexyl)-5-methoxypyrazine-2-carboxamide] | 
31 | > 100 |  | NCCC(=O)N[C@H]1CC[C@H](NC(=O)c2ccc(Cl)cc2C(F)(F)F)CC1 [compound 439, N-((1r,4r)-4-(3-aminopropanamido)cyclohexyl)-4-chloro-2-(trifluoromethyl)benzamide] | 
32 | > 100 |  | NCCC(=O)N[C@H]1CC[C@H](NC(=O)Cn2ccnc2)CC1 [compound 366, N-((1r,4r)-4-(2-(1H-imidazol-1-yl)acetamido)cyclohexyl)-3-aminopropanamide] | 
33 | 22.2 |  | N[C@H]1CC[C@H](NC(=O)c2cc3ccccc3nc2O)CC1 [compound 475, N-((1r,4r)-4-aminocyclohexyl)-2-hydroxyquinoline-3-carboxamide] | 
34 | > 100 |  | N[C@H]1CC[C@H](NC(=O)c2ncccc2O)CC1 [compound 480, N-((1r,4r)-4-aminocyclohexyl)-3-hydroxypicolinamide] | 
35 | > 100 |  | N[C@H]1CC[C@H](NC(=O)c2nc3ccccc3s2)CC1 [compound 367, N-((1r,4r)-4-aminocyclohexyl)benzo[d]thiazole-2-carboxamide] | 
36 |  | 79.2 | N[C@H]1CC[C@H](NC(=O)c2ccc(-c3ccccc3)cc2)CC1 [compound 155, N-((1r,4r)-4-aminocyclohexyl)-[1,1′-biphenyl]-4-carboxamide] | 
37 |  | 116 | N[C@H]1CC[C@H](NC(=O)c2ccc3ccc(O)nc3c2)CC1 [compound 119, N-((1r,4r)-4-aminocyclohexyl)-2-hydroxyquinoline-7-carboxamide] | 
38 | 53.1 |  | NCCC(=O)N[C@H]1CC[C@H](NC(=O)c2ccc(-n3cncn3)cc2)CC1 [compound 473, N-((1r,4r)-4-(3-aminopropanamido)cyclohexyl)-4-(1H-1,2,4-triazol-1-yl)benzamide] | 
39 |  | 13.7 | N[C@H]1CC[C@H](NC(=O)c2ccc3[nH]c(=O)[nH]c3c2)CC1 [compound 73, N-((1r,4r)-4-aminocyclohexyl)-2-oxo-2,3-dihydro-1H-benzo[d]imidazole-5-carboxamide] | 
40 |  | 16.7 | CN1C(=O)Cc2cc(C(=O)N[C@H]3CC[C@H](N)CC3)ccc21 [compound 84, N-((1r,4r)-4-aminocyclohexyl)-1-methyl-2-oxoindoline-5-carboxamide] | 
41 | > 100 |  | N[C@H]1CC[C@H](NC(=O)c2cc3ccccc3[nH]2)CC1 [compound 234, N-((1r,4r)-4-aminocyclohexyl)-1H-indole-2-carboxamide] | 
42 |  | 139 | N[C@H]1CC[C@H](NC(=O)c2ccc3ncsc3c2)CC1 [compound 118, N-((1r,4r)-4-aminocyclohexyl)benzo[d]thiazole-6-carboxamide] | 
43 |  | 3.31 | N[C@H]1CC[C@H](NC(=O)c2ccc3c(c2)CC(=O)N3)CC1 [compound 42, N-((1r,4r)-4-aminocyclohexyl)-2-oxoindoline-5-carboxamide] | 
44 | > 100 |  | N[C@H]1CC[C@H](NC(=O)c2cc(=O)c3ccccc3o2)CC1 [compound 277, N-((1r,4r)-4-aminocyclohexyl)-4-oxo-4H-chromene-2-carboxamide] | 
45 | > 100 |  | Cc1c(C(=O)N[C@H]2CC[C@H](NC(=O)CCN)CC2)nnn1-c1ccccc1 [compound 401, N-((1r,4r)-4-(3-aminopropanamido)cyclohexyl)-5-methyl-1-phenyl-1H-1,2,3-triazole-4-carboxamide] | 
46 | > 100 |  | NCCC(=O)N[C@H]1CC[C@H](NC(=O)c2ccncc2F)CC1 [compound 390, N-((1r,4r)-4-(3-aminopropanamido)cyclohexyl)-3-fluoroisonicotinamide] | 
